The subject of one series is hCoV-229E. In words: microbe, parasite or virus in culture. The series is classed as cell-based. The settings on record: Human coronavirus 229E.
A further series concerns SARS-CoV-2. Nature of the series: microbe, parasite or virus in culture. It is filed as cell-based. The settings on record: for IC50: Severe acute respiratory syndrome coronavirus 2, SARS-CoV-2 in A549_ACE2_TMPRSS2 cells, fluorescence, mean of three biological replicates; for selectivity index (CC50/IC50): CC50 in A549_ACE2_TMPRSS2 cells over IC50.
Another series can be described thus: in vitro. To be noted: human.

Structures are written as SMILES.

As to `CC[C@@H](C)NC1=N[C@@]2(C)C(=CO1)[C@@]1(C)C(=O)C[C@H]3[C@@H](CC[C@@H]4[C@]3(C)CC[C@H]3[C@@]4(C)CC[C@H]4[C@@](C)(CO)C[C@H](O[C@H]5C[C@@H](OC)[C@H](O)[C@@H](C)O5)[C@@H](O)[C@@]43C)[C@@]13O[C@H]3[C@@H]2O` [Persicamidine A, persicamidine A], the IC50 turned out to be 3.8 nM in the series with hCoV-229E and 130 nM in the series on SARS-CoV-2.

With `CO[C@@H]1C[C@H](O[C@H]2C[C@](C)(CO)[C@@H]3CC[C@@]4(C)[C@@H]5CC[C@@H]6[C@H](CC(=O)[C@]7(C)C8=COC(NC(C)C)=N[C@]8(C)[C@@H](O)[C@@H]8O[C@@]687)[C@@]5(C)CC[C@@H]4[C@@]3(C)[C@@H]2O)O[C@H](C)[C@H]1O` [Persicamidine B, persicamidine B], the IC50 in the series with hCoV-229E turned out to be 3.6 nM; with SARS-CoV-2 it was 230 nM.

Regarding `CO[C@@H]1C[C@H](O[C@H]2C[C@](C)(CO)[C@@H]3CC[C@@]4(C)[C@@H]5CC[C@@H]6[C@H](CC(=O)[C@]7(C)C8=COC(N[C@H](C)C(C)C)=N[C@]8(C)[C@@H](O)[C@@H]8O[C@@]687)[C@@]5(C)CC[C@@H]4[C@@]3(C)[C@@H]2O)O[C@H](C)[C@H]1O` [Persicamidine C, persicamidine C], the IC50 in the series on hCoV-229E was 6.6 nM. For the same compound, in the series on SARS-CoV-2, the IC50 turned out to be 74 nM and the “selectivity index (CC50/IC50)” value is reported as above 50.

For `CO[C@@H]1C[C@H](O[C@H]2C[C@](C)(CO)[C@@H]3CC[C@@]4(C)[C@@H]5CC[C@@H]6[C@H](CC(=O)[C@]7(C)C8=COC(N[C@H](C)C(C)(C)C)=N[C@]8(C)[C@@H](O)[C@@H]8O[C@@]687)[C@@]5(C)CC[C@@H]4[C@@]3(C)[C@@H]2O)O[C@H](C)[C@H]1O` [Persicamidine D, persicamidine D], the figures for the IC50 in the series with hCoV-229E and in the series with SARS-CoV-2 were 5.2 nM and 84 nM, respectively. For the same compound, the “selectivity index (CC50/IC50)” value with SARS-CoV-2 was above 80.

`CCNC1=N[C@@]2(C)C(=CO1)[C@@]1(C)C(=O)C[C@H]3[C@@H](CC[C@@H]4[C@]3(C)CC[C@H]3[C@@]4(C)CC[C@H]4[C@@](C)(CO)C[C@H](O[C@H]5C[C@@H](OC)[C@H](O)[C@@H](C)O5)[C@@H](O)[C@@]43C)[C@@]13O[C@H]3[C@@H]2O` [Persicamidine E, persicamidine E]: the IC50 worked out at 5.3 nM in the series on hCoV-229E and 250 nM in the series with SARS-CoV-2.

For `CCC(CC)COC(=O)[C@H](C)N[P@](=O)(OC[C@H]1O[C@@](C#N)(c2ccc3c(N)ncnn23)[C@H](O)[C@@H]1O)Oc1ccccc1` [Remdesivir, reference compound], the values for the IC50 in the series with hCoV-229E and with SARS-CoV-2 were 3.5 nM and 30 nM, respectively. The viral inhibition result in the series on SARS-CoV-2 (SARS-CoV-2, antiviral compound control at 1 µM) is “full viral inhibition”. The compound further came in with a CC50 in the series “in vitro” above 1000 nM.

What is called IC50 is the concentration at which inhibition is half-maximal. The low end stands for greater potency, the high end for weaker potency.

The record behind these values is publication PMC10107436, “Persicamidines—Unprecedented Sesquarterpenoids with Potent Antiviral Bioactivity against Coronaviruses” (Angewandte Chemie (International Ed. in English), 2023).
